# Reference: ChEMBL document CHEMBL4507290 (2021)
# What was measured:
# [1] = system: Tyrosine-protein kinase ABL1 (Homo sapiens), P00519 [F317L]; conditions: Compound concentration 1000.0 nM
# [2] = system: Tyrosine-protein kinase ABL1 (Homo sapiens), P00519 [H396P]; conditions: Compound concentration 1000.0 nM
# [3] = target: Mitogen-activated protein kinase kinase kinase 6 (Homo sapiens) (UniProt O95382); conditions: Compound concentration 1000.0 nM
# [4] = target: BMP-2-inducible protein kinase (Homo sapiens) (UniProt Q9NSY1); conditions: Compound concentration 1000.0 nM
# Sequence of BMP-2-inducible protein kinase (Homo sapiens) (Q9NSY1 whole entry, looked up): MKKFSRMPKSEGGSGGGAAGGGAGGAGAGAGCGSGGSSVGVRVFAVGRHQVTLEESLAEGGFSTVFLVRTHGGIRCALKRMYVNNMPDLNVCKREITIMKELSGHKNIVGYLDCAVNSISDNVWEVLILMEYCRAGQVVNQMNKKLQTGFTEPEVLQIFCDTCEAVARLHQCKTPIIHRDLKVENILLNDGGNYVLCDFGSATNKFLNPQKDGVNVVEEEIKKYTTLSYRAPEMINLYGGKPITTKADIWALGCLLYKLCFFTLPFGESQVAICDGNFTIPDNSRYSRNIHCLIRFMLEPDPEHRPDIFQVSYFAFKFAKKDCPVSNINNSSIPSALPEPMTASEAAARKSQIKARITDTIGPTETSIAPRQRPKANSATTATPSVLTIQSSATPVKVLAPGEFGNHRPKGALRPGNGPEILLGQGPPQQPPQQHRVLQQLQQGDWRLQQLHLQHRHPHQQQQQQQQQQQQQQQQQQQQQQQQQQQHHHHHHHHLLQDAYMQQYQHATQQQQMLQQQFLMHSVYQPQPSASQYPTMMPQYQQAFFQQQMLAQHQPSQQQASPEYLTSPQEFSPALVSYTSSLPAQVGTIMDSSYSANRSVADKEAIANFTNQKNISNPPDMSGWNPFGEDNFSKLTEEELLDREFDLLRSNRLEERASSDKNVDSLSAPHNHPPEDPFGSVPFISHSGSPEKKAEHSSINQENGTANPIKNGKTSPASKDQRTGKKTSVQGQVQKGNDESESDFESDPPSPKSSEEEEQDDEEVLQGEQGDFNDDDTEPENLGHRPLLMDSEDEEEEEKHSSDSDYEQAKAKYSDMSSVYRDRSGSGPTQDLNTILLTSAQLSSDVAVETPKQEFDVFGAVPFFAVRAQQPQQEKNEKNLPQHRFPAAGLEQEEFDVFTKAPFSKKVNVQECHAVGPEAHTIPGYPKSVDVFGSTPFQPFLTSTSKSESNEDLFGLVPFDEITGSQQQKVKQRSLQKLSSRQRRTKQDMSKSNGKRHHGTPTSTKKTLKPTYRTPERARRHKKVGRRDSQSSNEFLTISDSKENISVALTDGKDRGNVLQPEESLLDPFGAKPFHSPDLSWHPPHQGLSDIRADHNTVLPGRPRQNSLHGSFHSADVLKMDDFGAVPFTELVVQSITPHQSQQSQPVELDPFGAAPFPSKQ
# [5] = target: Tyrosine-protein kinase BTK (Homo sapiens) (UniProt Q06187); conditions: Compound concentration 1000.0 nM
# [6] = target: Calcium/calmodulin-dependent protein kinase type II subunit beta (Homo sapiens) (UniProt Q13554); conditions: Compound concentration 1000.0 nM
# [7] = target: Tyrosine-protein kinase CSK (Homo sapiens) (UniProt P41240); conditions: Compound concentration 1000.0 nM
# [8] = target: Eukaryotic translation initiation factor 2-alpha kinase 1 (Homo sapiens) (UniProt Q9BQI3); conditions: Compound concentration 1000.0 nM
# [9] = target: Tyrosine-protein kinase Fes/Fps (Homo sapiens) (UniProt P07332); conditions: Compound concentration 1000.0 nM
# [10] = target: Fibroblast growth factor receptor 3 (Homo sapiens) (UniProt P22607); conditions: Compound concentration 1000.0 nM
# [11] = system: Fibroblast growth factor receptor 3 (Homo sapiens), P22607 [G697C]; conditions: Compound concentration 1000.0 nM
# [12] = system: Receptor-type tyrosine-protein kinase FLT3 (Homo sapiens), P36888 [D835H]; conditions: Compound concentration 1000.0 nM
# [13] = target: Tyrosine-protein kinase Fyn (Homo sapiens) (UniProt P06241); conditions: Compound concentration 1000.0 nM
# [14] = system: eIF-2-alpha kinase GCN2 (Homo sapiens), Q9P2K8 [S808G]; conditions: Compound concentration 1000.0 nM
# [15] = target: Rhodopsin kinase GRK1 (Homo sapiens) (UniProt Q15835); conditions: Compound concentration 1000.0 nM
# [16] = target: Tyrosine-protein kinase HCK (Homo sapiens) (UniProt P08631); conditions: Compound concentration 1000.0 nM
# [17] = target: Interleukin-1 receptor-associated kinase 3 (Homo sapiens) (UniProt Q9Y616); conditions: Compound concentration 1000.0 nM
# Sequence of Interleukin-1 receptor-associated kinase 3 (Homo sapiens) (Q9Y616 whole entry): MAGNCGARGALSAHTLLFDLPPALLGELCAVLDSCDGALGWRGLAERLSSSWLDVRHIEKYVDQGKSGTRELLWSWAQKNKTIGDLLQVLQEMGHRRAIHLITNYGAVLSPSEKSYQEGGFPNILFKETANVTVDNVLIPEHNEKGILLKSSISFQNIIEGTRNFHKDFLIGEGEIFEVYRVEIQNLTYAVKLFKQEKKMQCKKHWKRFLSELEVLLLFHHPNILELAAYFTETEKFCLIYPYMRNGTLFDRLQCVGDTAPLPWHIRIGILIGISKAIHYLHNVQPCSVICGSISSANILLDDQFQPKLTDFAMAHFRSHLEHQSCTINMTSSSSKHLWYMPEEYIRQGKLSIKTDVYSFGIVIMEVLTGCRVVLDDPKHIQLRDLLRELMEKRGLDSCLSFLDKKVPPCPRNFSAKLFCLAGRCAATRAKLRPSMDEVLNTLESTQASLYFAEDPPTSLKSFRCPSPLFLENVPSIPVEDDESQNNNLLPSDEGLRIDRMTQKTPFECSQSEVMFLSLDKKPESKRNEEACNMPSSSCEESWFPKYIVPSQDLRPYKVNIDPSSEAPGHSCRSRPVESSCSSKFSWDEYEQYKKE
# [18] = target: Serine/threonine-protein kinase MAK (Homo sapiens) (UniProt P20794); conditions: Compound concentration 1000.0 nM
# [19] = target: MAP kinase-interacting serine/threonine-protein kinase 1 (Homo sapiens) (UniProt Q9BUB5); conditions: Compound concentration 1000.0 nM
# [20] = target: Myosin light chain kinase (Homo sapiens) (UniProt Q32MK0); conditions: Compound concentration 1000.0 nM
# [21] = target: Serine/threonine-protein kinase Nek5 (Homo sapiens) (UniProt Q6P3R8); conditions: Compound concentration 1000.0 nM
# [22] = target: Serine/threonine-protein kinase Nek7 (Homo sapiens) (UniProt Q8TDX7); conditions: Compound concentration 1000.0 nM
# [23] = target: Phosphatidylinositol 4,5-bisphosphate 3-kinase catalytic subunit alpha isoform (Homo sapiens) (UniProt P42336); conditions: Compound concentration 1000.0 nM
# Sequence of Phosphatidylinositol 4,5-bisphosphate 3-kinase catalytic subunit alpha isoform (Homo sapiens) (P42336 whole entry, canonical isoform): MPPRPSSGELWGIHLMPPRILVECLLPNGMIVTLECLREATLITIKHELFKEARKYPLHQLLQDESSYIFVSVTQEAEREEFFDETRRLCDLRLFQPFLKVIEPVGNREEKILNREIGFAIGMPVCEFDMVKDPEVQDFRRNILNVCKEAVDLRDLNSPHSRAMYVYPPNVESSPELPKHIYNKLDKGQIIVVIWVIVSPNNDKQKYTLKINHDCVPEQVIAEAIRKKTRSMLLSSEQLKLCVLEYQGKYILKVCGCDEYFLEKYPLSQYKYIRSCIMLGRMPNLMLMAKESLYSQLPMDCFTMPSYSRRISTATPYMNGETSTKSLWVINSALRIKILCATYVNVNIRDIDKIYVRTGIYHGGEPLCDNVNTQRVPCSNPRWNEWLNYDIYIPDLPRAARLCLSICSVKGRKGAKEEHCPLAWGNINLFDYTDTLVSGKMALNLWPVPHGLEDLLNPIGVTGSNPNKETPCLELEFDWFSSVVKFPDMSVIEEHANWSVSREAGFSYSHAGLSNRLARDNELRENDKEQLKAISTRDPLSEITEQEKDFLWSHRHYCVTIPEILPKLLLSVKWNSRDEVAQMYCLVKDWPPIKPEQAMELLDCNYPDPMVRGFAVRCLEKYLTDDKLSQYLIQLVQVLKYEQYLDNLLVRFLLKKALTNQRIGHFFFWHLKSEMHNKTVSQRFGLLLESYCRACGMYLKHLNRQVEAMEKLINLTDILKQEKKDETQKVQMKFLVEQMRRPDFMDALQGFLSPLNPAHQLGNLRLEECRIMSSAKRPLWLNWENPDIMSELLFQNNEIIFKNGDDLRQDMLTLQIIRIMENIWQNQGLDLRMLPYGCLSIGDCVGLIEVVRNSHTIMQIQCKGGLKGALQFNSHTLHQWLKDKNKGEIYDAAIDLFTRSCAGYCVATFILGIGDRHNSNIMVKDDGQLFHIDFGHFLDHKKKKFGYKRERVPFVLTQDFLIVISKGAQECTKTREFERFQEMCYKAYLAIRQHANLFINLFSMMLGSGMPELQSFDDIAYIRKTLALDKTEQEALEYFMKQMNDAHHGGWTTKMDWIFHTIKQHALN
# [24] = target: Serine/threonine-protein kinase pim-1 (Homo sapiens) (UniProt P11309); conditions: Compound concentration 1000.0 nM
# [25] = target: Serine/threonine-protein kinase Sgk1 (Homo sapiens) (UniProt O00141); conditions: Compound concentration 1000.0 nM
# [26] = target: Serine/threonine-protein kinase 16 (Homo sapiens) (UniProt O75716); conditions: Compound concentration 1000.0 nM
# [27] = target: TGF-beta receptor type-1 (Homo sapiens) (UniProt P36897); conditions: Compound concentration 1000.0 nM
# [28] = target: Wee1-like protein kinase (Homo sapiens) (UniProt P30291); conditions: Compound concentration 1000.0 nM
# Sequence of Wee1-like protein kinase (Homo sapiens) (P30291 whole entry, looked up): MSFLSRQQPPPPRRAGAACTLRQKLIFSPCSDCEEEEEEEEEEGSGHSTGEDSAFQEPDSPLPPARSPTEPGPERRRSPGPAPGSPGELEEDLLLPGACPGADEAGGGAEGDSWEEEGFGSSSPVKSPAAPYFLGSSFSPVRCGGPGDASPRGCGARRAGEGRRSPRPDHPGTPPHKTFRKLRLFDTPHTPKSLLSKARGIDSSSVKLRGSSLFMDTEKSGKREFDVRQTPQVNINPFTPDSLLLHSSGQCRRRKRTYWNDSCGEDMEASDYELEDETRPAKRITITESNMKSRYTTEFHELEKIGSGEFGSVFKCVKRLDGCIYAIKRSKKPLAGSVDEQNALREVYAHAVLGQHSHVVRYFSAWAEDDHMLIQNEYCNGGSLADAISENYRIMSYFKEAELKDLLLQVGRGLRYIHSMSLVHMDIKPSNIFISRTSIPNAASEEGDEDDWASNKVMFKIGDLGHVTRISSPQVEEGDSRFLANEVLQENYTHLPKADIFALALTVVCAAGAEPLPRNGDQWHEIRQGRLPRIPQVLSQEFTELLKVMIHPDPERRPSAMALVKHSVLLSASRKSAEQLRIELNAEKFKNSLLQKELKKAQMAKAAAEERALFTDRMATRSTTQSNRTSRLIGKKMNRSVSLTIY
# [29] = target: Mitogen-activated protein kinase kinase kinase 19 (Homo sapiens) (UniProt Q56UN5); conditions: Compound concentration 1000.0 nM
# [30] = target: 5-hydroxytryptamine receptor 5A (Homo sapiens) (UniProt P47898); conditions: Compound concentration 10.0 uM
# Sequence of 5-hydroxytryptamine receptor 5A (Homo sapiens) (P47898 whole entry): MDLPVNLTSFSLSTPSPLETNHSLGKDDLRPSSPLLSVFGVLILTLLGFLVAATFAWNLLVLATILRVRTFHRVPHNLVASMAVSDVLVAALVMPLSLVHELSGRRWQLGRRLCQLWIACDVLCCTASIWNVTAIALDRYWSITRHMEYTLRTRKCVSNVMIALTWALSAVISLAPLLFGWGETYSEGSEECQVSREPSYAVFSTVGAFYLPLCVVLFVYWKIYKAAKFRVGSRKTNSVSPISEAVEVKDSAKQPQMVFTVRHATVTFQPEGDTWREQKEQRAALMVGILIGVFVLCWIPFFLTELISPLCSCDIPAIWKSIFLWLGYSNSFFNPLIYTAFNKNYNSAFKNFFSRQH
# [31] = target: 5-hydroxytryptamine receptor 7 (Homo sapiens) (UniProt P34969); conditions: Compound concentration 10.0 uM
# Sequence of 5-hydroxytryptamine receptor 7 (Homo sapiens) (P34969 whole entry): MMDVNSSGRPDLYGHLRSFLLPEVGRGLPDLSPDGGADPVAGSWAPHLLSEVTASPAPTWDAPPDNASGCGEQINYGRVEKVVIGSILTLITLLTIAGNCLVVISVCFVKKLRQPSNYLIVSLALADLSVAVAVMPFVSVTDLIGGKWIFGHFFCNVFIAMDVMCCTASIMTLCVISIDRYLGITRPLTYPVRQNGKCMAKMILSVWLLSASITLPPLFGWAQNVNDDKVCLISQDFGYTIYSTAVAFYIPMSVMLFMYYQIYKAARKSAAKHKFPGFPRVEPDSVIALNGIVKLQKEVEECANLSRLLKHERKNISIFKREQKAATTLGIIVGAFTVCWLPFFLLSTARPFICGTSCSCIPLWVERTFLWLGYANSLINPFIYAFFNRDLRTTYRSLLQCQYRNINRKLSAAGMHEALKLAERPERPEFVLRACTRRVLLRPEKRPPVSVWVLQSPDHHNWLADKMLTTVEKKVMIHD
# [32] = target: Delta-type opioid receptor (Homo sapiens) (UniProt P41143); conditions: Compound concentration 10.0 uM
# [33] = target: Histamine H1 receptor (Homo sapiens) (UniProt P35367); conditions: Compound concentration 10.0 uM
# [34] = target: Sodium-dependent dopamine transporter (Homo sapiens, UniProt Q01959); assay: GPCRScan assay: inhibition of DAT; set-up: radioligand conc. used [nm] 3.6 – 16.0, parental cells stable HEK
# Sequence of Sodium-dependent dopamine transporter (Q01959 whole entry): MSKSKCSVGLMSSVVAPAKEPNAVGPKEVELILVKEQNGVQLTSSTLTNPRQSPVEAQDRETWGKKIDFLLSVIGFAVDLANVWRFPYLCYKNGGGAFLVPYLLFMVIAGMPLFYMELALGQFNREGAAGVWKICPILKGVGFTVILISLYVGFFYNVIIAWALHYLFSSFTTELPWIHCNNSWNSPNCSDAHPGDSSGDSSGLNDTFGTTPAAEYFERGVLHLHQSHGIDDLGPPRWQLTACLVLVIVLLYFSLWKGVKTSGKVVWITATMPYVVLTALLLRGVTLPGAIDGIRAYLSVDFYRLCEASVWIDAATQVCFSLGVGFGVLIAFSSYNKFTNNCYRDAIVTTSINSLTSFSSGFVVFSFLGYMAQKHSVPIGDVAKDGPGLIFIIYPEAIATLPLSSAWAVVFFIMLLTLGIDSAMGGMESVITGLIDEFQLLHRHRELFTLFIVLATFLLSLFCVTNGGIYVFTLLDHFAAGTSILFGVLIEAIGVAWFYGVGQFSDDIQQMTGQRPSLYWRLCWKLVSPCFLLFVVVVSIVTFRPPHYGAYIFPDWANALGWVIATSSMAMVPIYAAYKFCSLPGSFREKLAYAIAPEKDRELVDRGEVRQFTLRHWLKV
# [35] = target: Inhibitor of nuclear factor kappa-B kinase subunit epsilon (Homo sapiens) (UniProt Q14164); conditions: Compound concentration 1000.0 nM
# [36] = target: MAP kinase-activated protein kinase 5 (Homo sapiens) (UniProt Q8IW41); conditions: Compound concentration 1000.0 nM
# [37] = target: Hepatocyte growth factor receptor (Homo sapiens) (UniProt P08581); conditions: Compound concentration 1000.0 nM
# [38] = system: Hepatocyte growth factor receptor (Homo sapiens), P08581 [M1250T]; conditions: Compound concentration 1000.0 nM
# [39] = system: Hepatocyte growth factor receptor (Homo sapiens), P08581 [Y1235D]; conditions: Compound concentration 1000.0 nM
# [40] = target: cAMP-dependent protein kinase catalytic subunit beta (Homo sapiens) (UniProt P22694); conditions: Compound concentration 1000.0 nM
# [41] = target: 5-hydroxytryptamine receptor 1A (Homo sapiens) (UniProt P08908); conditions: Compound concentration 10.0 uM
# [42] = target: Histamine H3 receptor (Homo sapiens) (UniProt Q9Y5N1); conditions: Compound concentration 10.0 uM
# [43] = target: Alpha-1B adrenergic receptor (Homo sapiens) (UniProt P35368); conditions: Compound concentration 10.0 uM
# [44] = target: Alpha-2A adrenergic receptor (Homo sapiens) (UniProt P08913); conditions: Compound concentration 10.0 uM
# [45] = target: Alpha-1D adrenergic receptor (Homo sapiens) (UniProt P25100); conditions: Compound concentration 10.0 uM
compound,measurement,setting,value
CN([C@@H]1CCc2c(CC(=O)O)c3cc(S(C)(=O)=O)ccc3n2C1)S(=O)(=O)c1ccc(F)cc1,residual activity,[1],92%
same,residual activity,[2],78%
same,residual activity,[3],89%
same,residual activity,[4],98%
same,residual activity,[5],90%
same,residual activity,[6],100%
same,residual activity,[7],99%
same,residual activity,[8],90%
same,residual activity,[9],92%
same,residual activity,[10],100%
same,residual activity,[11],90%
same,residual activity,[12],76%
same,residual activity,[13],99%
same,residual activity,[14],71%
same,residual activity,[15],70%
same,residual activity,[16],87%
same,residual activity,[17],100%
same,residual activity,[18],65%
same,residual activity,[19],86%
same,residual activity,[20],100%
same,residual activity,[21],100%
same,residual activity,[22],98%
same,residual activity,[23],100%
same,residual activity,[24],100%
same,residual activity,[25],100%
same,residual activity,[26],95%
same,residual activity,[27],100%
same,residual activity,[28],100%
same,residual activity,[29],79%
same,inhibition,[30],-1.56%
same,inhibition,[31],-3.44%
same,inhibition,[32],20%
same,inhibition,[33],-9.04%
CN([C@@H]1CCc2c(CC(=O)O)c3ccccc3n2C1)S(=O)(=O)c1ccc(F)cc1 [MK-7246],Ki,[34]; read-out: Ki,283 nM
same,Ki,[34]; read-out: pKi (converted),316 nM
same,residual activity,[2],100%
same,residual activity,[3],80%
same,residual activity,[4],100%
same,residual activity,[5],86%
same,residual activity,[6],99%
same,residual activity,[7],100%
same,residual activity,[8],98%
same,residual activity,[9],79%
same,residual activity,[10],100%
same,residual activity,[11],100%
same,residual activity,[12],91%
same,residual activity,[13],77%
same,residual activity,[14],78%
same,residual activity,[15],88%
same,residual activity,[16],95%
same,residual activity,[35],84%
same,residual activity,[17],100%
same,residual activity,[18],82%
same,residual activity,[36],94%
same,residual activity,[37],100%
same,residual activity,[38],100%
same,residual activity,[39],100%
same,residual activity,[19],93%
same,residual activity,[20],95%
same,residual activity,[21],100%
same,residual activity,[22],100%
same,residual activity,[23],100%
same,residual activity,[24],96%
same,residual activity,[40],100%
same,residual activity,[25],100%
same,residual activity,[26],99%
same,residual activity,[27],100%
same,residual activity,[28],100%
same,residual activity,[29],100%
same,inhibition,[41],15.5%
same,inhibition,[30],-1.36%
same,inhibition,[31],4.11%
same,inhibition,[42],4.03%
same,inhibition,[43],-8.18%
same,inhibition,[44],-3.89%
same,inhibition,[45],50%
